Reference: ChEMBL document CHEMBL4376823, “The discovery of a potent and selective third-generation EGFR kinase inhibitor as a therapy for EGFR L858R/T790M double mutant non-small cell lung cancer” (Eur J Med Chem, 2019)
The source made the active and inactive calls.

Legend:
[1] = test system: Epidermal growth factor receptor (Homo sapiens), P00533 [L858R]; experiment: Inhibition of EGFR L858R mutant in human PC9 cells assessed as reduction in EGFR Y1068 phosphorylation at 5 to 100 nM incubated for 4 hrs by Western blot analysis; type: cell-based
Epidermal growth factor receptor (Homo sapiens), P00533 [L858R], sequence (P00533 whole entry L858R): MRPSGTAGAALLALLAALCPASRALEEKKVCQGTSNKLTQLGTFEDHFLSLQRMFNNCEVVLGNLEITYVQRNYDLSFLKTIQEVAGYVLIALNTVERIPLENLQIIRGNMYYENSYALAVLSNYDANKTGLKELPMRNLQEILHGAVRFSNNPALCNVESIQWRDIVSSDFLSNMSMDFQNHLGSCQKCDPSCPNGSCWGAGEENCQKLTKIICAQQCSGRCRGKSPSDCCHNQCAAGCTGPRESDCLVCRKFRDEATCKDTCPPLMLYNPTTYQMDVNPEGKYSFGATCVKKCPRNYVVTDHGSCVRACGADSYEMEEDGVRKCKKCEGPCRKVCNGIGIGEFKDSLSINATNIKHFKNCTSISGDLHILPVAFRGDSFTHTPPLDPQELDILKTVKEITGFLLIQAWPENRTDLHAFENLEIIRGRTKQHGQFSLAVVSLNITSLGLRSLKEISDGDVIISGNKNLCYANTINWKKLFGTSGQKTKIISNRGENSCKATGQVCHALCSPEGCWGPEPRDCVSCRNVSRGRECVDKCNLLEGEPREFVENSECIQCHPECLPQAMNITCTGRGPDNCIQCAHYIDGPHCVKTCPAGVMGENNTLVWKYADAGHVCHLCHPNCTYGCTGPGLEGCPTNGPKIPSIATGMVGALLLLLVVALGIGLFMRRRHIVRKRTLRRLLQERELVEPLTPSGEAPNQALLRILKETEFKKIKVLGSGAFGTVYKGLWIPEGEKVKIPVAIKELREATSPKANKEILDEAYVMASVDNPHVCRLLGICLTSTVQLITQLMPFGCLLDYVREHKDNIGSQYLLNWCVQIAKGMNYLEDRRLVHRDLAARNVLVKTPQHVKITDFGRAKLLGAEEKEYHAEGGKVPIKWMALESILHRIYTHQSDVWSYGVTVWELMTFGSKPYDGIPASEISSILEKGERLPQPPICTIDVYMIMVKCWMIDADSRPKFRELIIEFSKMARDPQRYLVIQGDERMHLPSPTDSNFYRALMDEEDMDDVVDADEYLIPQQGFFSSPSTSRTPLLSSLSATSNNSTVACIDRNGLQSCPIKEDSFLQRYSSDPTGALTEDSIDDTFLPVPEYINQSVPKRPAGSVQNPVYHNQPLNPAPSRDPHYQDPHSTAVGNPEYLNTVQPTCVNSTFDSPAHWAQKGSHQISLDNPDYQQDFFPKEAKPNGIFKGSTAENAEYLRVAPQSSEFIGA

[2] = test system: NCI-H1975; experiment: Induction of apoptosis in human NCI-H1975 cells assessed as upregulation of Bad at 10 to 50 nM incubated for 24 hrs by Western blot analysis; type: functional, cell-based
[3] = target: T1, Epidermal growth factor receptor (Homo sapiens, UniProt P00533); experiment: Inhibition of EGFR in human NCI-H292 cells assessed as reduction in AKT phosphorylation at 5 to 100 nM incubated for 4 hrs by Western blot analysis; type: cell-based
T1 sequence (P00533 whole entry): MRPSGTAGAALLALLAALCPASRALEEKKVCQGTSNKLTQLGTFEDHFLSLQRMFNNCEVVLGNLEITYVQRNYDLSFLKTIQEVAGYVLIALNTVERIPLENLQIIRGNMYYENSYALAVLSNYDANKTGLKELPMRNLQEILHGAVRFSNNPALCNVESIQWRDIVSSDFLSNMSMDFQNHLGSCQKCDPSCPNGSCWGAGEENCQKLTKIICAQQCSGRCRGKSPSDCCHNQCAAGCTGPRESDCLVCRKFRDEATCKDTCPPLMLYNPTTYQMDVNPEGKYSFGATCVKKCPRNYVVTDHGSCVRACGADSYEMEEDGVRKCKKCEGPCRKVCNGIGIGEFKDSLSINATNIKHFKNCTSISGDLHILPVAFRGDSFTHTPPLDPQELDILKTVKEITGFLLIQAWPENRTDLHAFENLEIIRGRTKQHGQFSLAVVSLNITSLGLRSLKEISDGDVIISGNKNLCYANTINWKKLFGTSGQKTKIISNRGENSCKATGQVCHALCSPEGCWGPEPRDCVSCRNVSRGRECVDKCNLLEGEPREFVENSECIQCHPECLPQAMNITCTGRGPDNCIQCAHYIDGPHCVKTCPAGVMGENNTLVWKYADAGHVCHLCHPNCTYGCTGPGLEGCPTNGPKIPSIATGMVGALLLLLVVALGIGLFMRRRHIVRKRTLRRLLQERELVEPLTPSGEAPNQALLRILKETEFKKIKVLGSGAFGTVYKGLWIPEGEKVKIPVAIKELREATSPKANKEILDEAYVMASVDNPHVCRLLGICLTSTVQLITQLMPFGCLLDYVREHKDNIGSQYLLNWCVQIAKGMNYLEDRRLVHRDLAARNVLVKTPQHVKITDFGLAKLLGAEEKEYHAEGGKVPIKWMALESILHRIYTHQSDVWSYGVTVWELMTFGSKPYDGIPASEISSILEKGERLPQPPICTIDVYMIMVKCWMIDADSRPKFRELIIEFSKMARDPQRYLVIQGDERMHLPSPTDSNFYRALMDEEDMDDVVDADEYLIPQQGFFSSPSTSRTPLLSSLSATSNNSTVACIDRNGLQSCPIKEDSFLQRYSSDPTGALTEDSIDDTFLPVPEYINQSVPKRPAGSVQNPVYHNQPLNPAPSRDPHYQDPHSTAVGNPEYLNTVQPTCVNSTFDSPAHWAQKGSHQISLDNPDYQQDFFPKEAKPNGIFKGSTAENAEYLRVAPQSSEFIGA

[4] = test system: Epidermal growth factor receptor (Homo sapiens), P00533 [L858R,T790M]; experiment: Inhibition of EGFR T790M/L858R mutant in human NCI-H1975 cells assessed as reduction in EGFR Y1068 phosphorylation incubated for 4 hrs by Western blot analysis; type: cell-based
Epidermal growth factor receptor (Homo sapiens), P00533 [L858R,T790M], sequence (P00533 whole entry T790M/L858R, looked up): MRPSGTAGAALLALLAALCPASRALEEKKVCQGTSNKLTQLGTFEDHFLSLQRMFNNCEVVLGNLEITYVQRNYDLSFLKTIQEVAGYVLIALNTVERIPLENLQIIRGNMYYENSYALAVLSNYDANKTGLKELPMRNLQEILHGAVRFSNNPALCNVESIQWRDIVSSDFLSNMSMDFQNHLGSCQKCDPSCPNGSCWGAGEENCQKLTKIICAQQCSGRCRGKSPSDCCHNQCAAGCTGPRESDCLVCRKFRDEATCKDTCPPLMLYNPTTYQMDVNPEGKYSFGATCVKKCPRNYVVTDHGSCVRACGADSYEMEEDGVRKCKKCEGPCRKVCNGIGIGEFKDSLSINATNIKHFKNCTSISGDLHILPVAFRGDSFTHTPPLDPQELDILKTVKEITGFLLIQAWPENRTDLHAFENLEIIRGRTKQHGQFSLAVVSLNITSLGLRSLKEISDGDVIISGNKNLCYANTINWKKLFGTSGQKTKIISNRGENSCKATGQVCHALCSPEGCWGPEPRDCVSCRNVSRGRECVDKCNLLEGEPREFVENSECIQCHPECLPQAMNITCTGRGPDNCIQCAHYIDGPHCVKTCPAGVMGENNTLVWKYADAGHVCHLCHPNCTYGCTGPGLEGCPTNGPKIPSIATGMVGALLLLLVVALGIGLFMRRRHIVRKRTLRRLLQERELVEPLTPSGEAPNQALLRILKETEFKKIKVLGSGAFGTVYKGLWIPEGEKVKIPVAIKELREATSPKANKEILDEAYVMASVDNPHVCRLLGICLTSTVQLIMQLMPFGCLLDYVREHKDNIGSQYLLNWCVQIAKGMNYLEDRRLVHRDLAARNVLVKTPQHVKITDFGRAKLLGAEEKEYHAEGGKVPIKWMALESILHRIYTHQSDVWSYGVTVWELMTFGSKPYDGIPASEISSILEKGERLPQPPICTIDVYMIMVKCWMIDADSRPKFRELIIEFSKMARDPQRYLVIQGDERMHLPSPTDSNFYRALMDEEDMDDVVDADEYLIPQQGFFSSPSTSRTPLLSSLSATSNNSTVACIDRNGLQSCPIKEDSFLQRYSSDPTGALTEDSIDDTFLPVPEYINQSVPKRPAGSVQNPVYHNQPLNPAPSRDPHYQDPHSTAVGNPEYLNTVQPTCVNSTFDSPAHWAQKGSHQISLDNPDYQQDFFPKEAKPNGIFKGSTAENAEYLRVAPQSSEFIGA

[5] = test system: NCI-H1975; experiment: Induction of apoptosis in human NCI-H1975 cells assessed as downregulation of Bcl-2 at 10 to 50 nM incubated for 24 hrs by Western blot analysis; type: functional, cell-based
[6] = target: T1, Epidermal growth factor receptor; experiment: Inhibition of EGFR in human NCI-H292 cells assessed as reduction in AKT phosphorylation incubated for 4 hrs by Western blot analysis; type: cell-based
[7] = test system: Epidermal growth factor receptor (Homo sapiens), P00533 [L858R,T790M]; experiment: Inhibition of EGFR T790M/L858R mutant in human NCI-H1975 cells assessed as reduction in AKT phosphorylation incubated for 4 hrs by Western blot analysis; type: cell-based
[8] = test system: Epidermal growth factor receptor (Homo sapiens), P00533 [L858R,T790M]; experiment: Inhibition of EGFR T790M/L858R mutant in human NCI-H1975 cells assessed as reduction in EGFR Y1068 phosphorylation at 5 to 100 nM incubated for 4 hrs by Western blot analysis; type: cell-based
[9] = test system: NCI-H1975; experiment: Induction of apoptosis in human NCI-H1975 cells assessed as upregulation of Bax at 10 to 50 nM incubated for 24 hrs by Western blot analysis; type: functional, cell-based
[10] = test system: NCI-H1975; experiment: Antitumor activity against human NCI-H1975 cells xenografted in ig dosed BALB/c mouse assessed as tumor growth inhibition for one week; type: functional, organism-based
[11] = test system: NCI-H1975; experiment: Induction of apoptosis in human NCI-H1975 cells assessed as reduction in mitochondrial membrane potential at 5 to 50 nM incubated for 24 hrs by JC-1 staining based laser scanning confocal microscopy; type: functional, cell-based
[12] = target: T1, Epidermal growth factor receptor; experiment: Inhibition of EGFR in human NCI-H292 cells assessed as reduction in EGFR Y1068 phosphorylation at 5 to 100 nM incubated for 4 hrs by Western blot analysis; type: cell-based
[13] = test system: Epidermal growth factor receptor (Homo sapiens), P00533 [L858R]; experiment: Inhibition of EGFR L858R mutant in human PC9 cells assessed as reduction in AKT phosphorylation at 5 to 100 nM incubated for 4 hrs by Western blot analysis; type: cell-based
[14] = test system: Epidermal growth factor receptor (Homo sapiens), P00533 [L858R]; experiment: Inhibition of EGFR L858R mutant in human PC9 cells assessed as reduction in AKT phosphorylation incubated for 4 hrs by Western blot analysis; type: cell-based
[15] = test system: Epidermal growth factor receptor (Homo sapiens), P00533 [L858R,T790M]; experiment: Inhibition of EGFR T790M/L858R mutant in human NCI-H1975 cells assessed as reduction in AKT phosphorylation at 5 to 100 nM incubated for 4 hrs by Western blot analysis; type: cell-based

C=CC(=O)Nc1cc(Nc2nccc(-c3cn(C)c4ccccc34)n2)c(OC)cc1[S+]([O-])CCN(C)C (single isomer, unassigned; (-))
active: inhibition [1] | Activity [2] | inhibition [3] | inhibition [4] Dose-dependent effect | Activity [5] | inhibition [6] Dose-dependent effect | inhibition [7] Dose-dependent effect | inhibition [8] | Activity [9] | TGI [10] Dose-dependent effect | Activity [11] Dose-dependent effect | inhibition [12] | inhibition [13] | inhibition [14] Dose-dependent effect | inhibition [15]
